The record followed here is patent publication US20070148660A1, “Treatment of maladaptive substance use with H-ras antagonists” (The Regents of the University of California, priority 2005, published 2007).

Each structure is given as a SMILES string.

The subject of assay [1] is Ras. The experiment in a line: Ras activity assay (Raf-1-Ras binding domain GST-agarose), hippocampal slices. The format is cell-based, mouse. The following applies: 100 mM ethanol, 15 min, hippocampal slices. The method, then: The treated hippocampal homogenates (250 μg) were incubated with […] of Raf-1-Ras binding domain GST-agarose for 45 min at 4° C. while rotating, as per manufacturer's instructions. […] Results were quantified by NIH Image 1.61.

Assay [2] has as its system NR2B. The note with it: ethanol, hippocampal slices, data not shown. The method, then:
(§1) Transverse hippocampal slices ([…]) were prepared from 10- to 12-week-old C57BL/6J mice. Slices were allowed to recover for 90 min in artificial cerebrospinal fluid (aCSF) saturated with 95% O2/5% CO2 containing (in mM): 126 NaCl, 1.2 KCl, 1.2 NaH2PO4, 1.2 MgCl2, 2.4 CaCl2, 18 NaHCO3, and 11 glucose. Following recovery, slices were treated with aCSF (control) or ethanol at room temperature, after which the slices were rinsed in cold aCSF, and used either for cross-linking experiments, for Ras activity assay, or for immunoprecipitation. In experiments using Tat-H-Ras DN or the Tat-peptide, the slices were pretreated with either aCSF (control) or 2 μM Tat-H-Ras DN or Tat-peptide for 2 hrs at room temperature, followed by ethanol treatments.
(§2) Chymotrypsin experiments were performed as described previously (22), with minor modifications. Following recovery, slices were treated with aCSF or 0.5 mg/ml chymotrypsin at 32° C. for 5 min. […] The protein concentration was determined using the BCA assay, followed by SDS-PAGE and Western blot analysis.
(§3) Proteins were separated by SDS-PAGE and blotted onto a nitrocellulose membrane. […] Results were quantified by NIH Image 1.61.

Assay [3] has as its system NR2A subunits. The note with it: 100 mM ethanol, 15 min, hippocampal slices. The method, then:
as §1, §2, §3

Assay [4] has as its system NMDAR. In words: NMDAR-mediated fEPSPs, hippocampal CA1 field recording. The class given is cell-based, mouse. The following applies: bath application of 80 mM ethanol, n=11. The protocol: Electrophysiological recordings were performed in C57BL/6J mice ranging from P21 to P26. Briefly, mice were anesthetized with halothane and decapitated as per University of California, San Francisco animal care guidelines. Horizontal sections of the hippocampus ([…]) were prepared with a vibratome (Leica, Nussloch, Germany). Slices were placed in a holding chamber and allowed to recover for at least 1 hr before being placed in the recording chamber and superfused with aCSF saturated with 95% O2/5% CO2 and containing (in mM): 119 NaCl, 1.6 KCl, 1.0 NaH2PO4, 1.3 MgCl2 (for EPSCs) or 0.01 MgCl2 (for field excitatory postsynaptic potentials (fEPSPs)), 2.5 CaCl2, 26.2 NaHCO3 and 11 glucose. […]
fEPSPs were recorded using a MultiClamp 700A amplifier (Axon Instruments, Union City, Calif.) with […] patch pipettes filled with 1 M NaCl and 25 mM HEPES. To evoke fEPSPs, Schaffer collateral/commissural afferents in hippocampal CA1 region were stimulated with 0.1 Hz pulses using steel bipolar microelectrodes at intensities adjusted to produce an evoked response that was 50% of the maximal recorded fEPSP for each recording. fEPSPs were filtered at 1 kHz, digitized at 10 kHz and collected on-line using with pClamp 9 (Axon Instrument, Union City, Calif.). […]

In assay [5] the test system is Src kinase. The note with it: 100 mM ethanol, 15 min, hippocampal slices. The method, then:
as §1
(§4) The treated slices were homogenized in ice-cold buffer containing 1% deoxycholate, protease and phosphatase inhibitors and (in mM): 250 sucrose, 20 Tris-HCl (pH 7.5), 2 EDTA and 10 EGTA. 500 μg of the protein was diluted with 1× immunoprecipitation buffer (1% Triton X-100 and (in mM): 150 NaCl, 10 Tris HCl (pH 7.4), 1 EDTA, 1 EGTA and 0.2 sodium orthovanadate) and incubated with 5 μg of the appropriate antibody, followed by an overnight incubation at 4° C. with protein G agarose beads. The beads were extensively washed, re-suspended in 2× sample buffer and boiled for 5-10 min. The samples were then subjected to SDS-PAGE followed by Western blotting with the appropriate antibodies.
(§5) Proteins were separated by SDS-PAGE and blotted onto a nitrocellulose membrane. After blocking, the membranes were incubated with the specific primary antibody, followed by horseradish peroxidase-conjugated secondary antibody. Detection was obtained followed by enhanced chemiluminescent reaction (Amersham Biosciences), and processed using the STORM PhosphoImager (Amersham Biosciences). Results were quantified by NIH Image 1.61.

Assay [6] relates to adaptin β2 with the AMPAR subunit GluR1. The note with it: 100 mM ethanol, 15 min, hippocampal slices. The protocol: as §1, §4, §5
Assay [7] concerns adaptin β2 with TrkB. The note with it: 100 mM ethanol, 15 min, hippocampal slices. The method, then: as §1, §4, §5
Assay [8] has as its system NR2A-adaptin β2 association. The note with it: 100 mM ethanol, 15 min, L(-tk) cells NR1+NR2A + PSD-95. The protocol:
(§6) L(−tk) were cultured on 100 mm plates. When cells reached 75% confluency, they were transfected with 5 μg of PSD95-GFP cDNA using LipofectAMINE PLUS in accordance with the manufacturer's instructions. 24 hrs after transfection, the expression of the NMDAR subunits NR1+NR2A or NR1+NR2B was induced with […] dexamethasone in DMEM containing 10% FBS, and 0.5 mM ketamine as previously described (21). After 3 days of induction, the cross-linking or immunoprecipitation studies were conducted. Homogenates were obtained as described in (17).
as §4, §3

The subject of assay [9] is NR2B-adaptin association. The following applies: 100 mM ethanol, 15 min, L(-tk) cells NR1+NR2B + PSD-95. The method, then:
as §6, §4, §3

Assay [10] deals with NR2A. The following applies: 100 mM ethanol, 15 min, L(-tk) cells NR1+NR2A. The method, then:
as §6
Cross-linking was performed as described previously (22), with minor modifications. Following treatment, the slices were placed in cold aCSF in the presence or absence of 2 mg/ml of the cross-linking reagent BS^3 for 45 min at 4° C. while shaking. Slices were then rinsed three times with cold aCSF containing 20 mM Tris (pH 7.6), followed by sonication in cold homogenization buffer (10% SDS, 10 mM EDTA, 100 mM Tris (pH 8.0), and protease and phosphatase inhibitor cocktails). The protein concentration was determined using the BCA assay, followed by SDS-PAGE and Western blot analysis. Data are expressed as ratio of normalized surface expressed or internalized receptors to the total receptor levels.
as §3

For the compound `CCO` [ethanol], the “increase of Ras-GTP levels over the control” value in [1] is listed as “at least 2 fold”. In addition, the “surface or intracellular levels of NR2B (chymotrypsin)” value in assay [2] was “no effects”. The “internalization of the NR2A subunits (chymotrypsin)” value in assay [3] was “significantly increased”. Also, in assay [4], the “inhibition of NMDAR-mediated fEPSPs” value was 47+8%. In addition, the “decrease in the levels of active phosphorylated Src” value in [5] is given as “approximately 40%”. Besides, the “interaction between GluR1 and adaptin β2” value in [6] is on record as “no change”. The “interaction between TrkB and adaptin β2” value in assay [7] was “no change”. Also, the “association of NR2A with adaptin β2” value in assay [8] is “increase”. In assay [9], the NR2B-adaptin association result was “no change”. For the same compound, the “internalized pool of NR2A” value in assay [10] is “increase”.
